Laboratory results from PMC4490784, “Compensatory induction of MYC expression by sustained CDK9 inhibition via a BRD4-dependent mechanism” (eLife, 2015).

Tests used:
Test in all cases: KINOMEscan binding assay
[1] = biological target: T1, ABL1(H396P)-phosphorylated (Homo sapiens, UniProt P00519, H396P); conditions: 1 µM i-CDK9; read-out: % Retention on Solid Support
T1 construct: purchased DiscoveRx KINOMEscan
Outline: (§1)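 Each kinase in a >400-member collection was probed for i-CDK9 binding via an active site-directed competition platform; test levels 1 and 10 µM.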

ABL2 = biological target: T2, ABL2 (Homo sapiens, UniProt P42684); conditions: read-out: % Retention on Solid Support
T2 construct: purchased DiscoveRx KINOMEscan
Outline: as §1

BRAF(V600E) = biological target: T3, BRAF(V600E) (Homo sapiens, UniProt P15056, V600E); conditions: read-out: % Retention on Solid Support
T3 construct: purchased DiscoveRx KINOMEscan
Outline: as §1

CSNK1G3 = biological target: T4, CSNK1G3 (Homo sapiens, UniProt Q9Y6M4)
T4 construct: purchased DiscoveRx KINOMEscan
Outline: as §1

DMPK = biological target: T5, DMPK (Homo sapiens, UniProt Q09013); conditions: read-out: % Retention on Solid Support
T5 construct: purchased DiscoveRx KINOMEscan
Outline: as §1

EPHA5 = biological target: T6, EPHA5 (Homo sapiens, UniProt P54756)
T6 construct: purchased DiscoveRx KINOMEscan
Outline: as §1

ERBB3 = biological target: T7, ERBB3 (Homo sapiens, UniProt P21860); conditions: read-out: % Retention on Solid Support
T7 construct: purchased DiscoveRx KINOMEscan
Outline: as §1

FGFR1 = biological target: T8, FGFR1 (Homo sapiens, UniProt P11362); conditions: read-out: % Retention on Solid Support
T8 construct: purchased DiscoveRx KINOMEscan
Outline: as §1

FGFR3 = biological target: T9, FGFR3 (Homo sapiens, UniProt P22607); conditions: read-out: % Retention on Solid Support
T9 construct: purchased DiscoveRx KINOMEscan
Outline: as §1

IRAK3 = biological target: T10, IRAK3 (Homo sapiens, UniProt Q9Y616); conditions: read-out: % Retention on Solid Support
T10 construct: purchased DiscoveRx KINOMEscan
Outline: as §1

LCK = biological target: T11, LCK (Homo sapiens, UniProt P06239); conditions: read-out: % Retention on Solid Support
T11 construct: purchased DiscoveRx KINOMEscan
Outline: as §1

LRRK2(G2019S) = biological target: T12, LRRK2(G2019S) (Homo sapiens, UniProt Q5S007, G2019S); conditions: 1 µM i-CDK9; read-out: % Retention on Solid Support
T12 construct: purchased DiscoveRx KINOMEscan
Outline: as §1

MAP3K15 = biological target: T13, MAP3K15 (Homo sapiens, UniProt Q6ZN16); conditions: read-out: % Retention on Solid Support
T13 construct: purchased DiscoveRx KINOMEscan
Outline: as §1

MAP3K2 = biological target: T14, MAP3K2 (Homo sapiens, UniProt Q9Y2U5); conditions: read-out: % Retention on Solid Support
T14 construct: purchased DiscoveRx KINOMEscan
Outline: as §1

MEK3 = biological target: T15, MEK3 (Homo sapiens, UniProt P46734); conditions: read-out: % Retention on Solid Support
T15 construct: purchased DiscoveRx KINOMEscan
Outline: as §1

MET(Y1235D) = biological target: T16, MET(Y1235D) (Homo sapiens, UniProt P08581, Y1235D)
T16 construct: purchased DiscoveRx KINOMEscan
Outline: as §1

MINK = biological target: T17, MINK (Homo sapiens, UniProt Q8N4C8); conditions: read-out: % Retention on Solid Support
T17 construct: purchased DiscoveRx KINOMEscan
Outline: as §1

MKK7 = biological target: T18, MKK7 (Homo sapiens, UniProt O14733); conditions: 1 µM i-CDK9
T18 construct: purchased DiscoveRx KINOMEscan
Outline: as §1

NEK11 = biological target: T19, NEK11 (Homo sapiens, UniProt Q8NG66); conditions: 1 µM i-CDK9; read-out: % Retention on Solid Support
T19 construct: purchased DiscoveRx KINOMEscan
Outline: as §1

PCTK1 = biological target: T20, PCTK1 (Homo sapiens, UniProt Q00536); conditions: read-out: % Retention on Solid Support
T20 construct: purchased DiscoveRx KINOMEscan
Outline: as §1

PIK3C2G = biological target: T21, PIK3C2G (Homo sapiens, UniProt O75747); conditions: read-out: % Retention on Solid Support
T21 construct: purchased DiscoveRx KINOMEscan
Outline: as §1

PIK3CA(E542K) = biological target: T22, PIK3CA(E542K) (Homo sapiens, UniProt P42336, E542K); conditions: read-out: % Retention on Solid Support
T22 construct: purchased DiscoveRx KINOMEscan
Outline: as §1

PRKD2 = biological target: T23, PRKD2 (Homo sapiens, UniProt Q9BZL6); conditions: read-out: % Retention on Solid Support
T23 construct: purchased DiscoveRx KINOMEscan
Outline: as §1

PRKD3 = biological target: T24, PRKD3 (Homo sapiens, UniProt O94806); conditions: read-out: % Retention on Solid Support
T24 construct: purchased DiscoveRx KINOMEscan
Outline: as §1

[2] = biological target: T25, RPS6KA4(Kin.Dom.1-N-terminal) (Homo sapiens, UniProt O75676); conditions: read-out: % Retention on Solid Support
T25 construct: RPS6KA4(Kin.Dom.1-N-terminal); purchased DiscoveRx KINOMEscan
Outline: as §1

[3] = biological target: T26, RSK4(Kin.Dom.1-N-terminal) (Homo sapiens, UniProt Q9UK32)
T26 construct: RSK4(Kin.Dom.1-N-terminal); purchased DiscoveRx KINOMEscan
Outline: as §1

SBK1 = biological target: T27, SBK1 (Homo sapiens, UniProt Q52WX2); conditions: read-out: % Retention on Solid Support
T27 construct: purchased DiscoveRx KINOMEscan
Outline: as §1

SIK2 = biological target: T28, SIK2 (Homo sapiens, UniProt Q9H0K1); conditions: read-out: % Retention on Solid Support
T28 construct: purchased DiscoveRx KINOMEscan
Outline: as §1

TYRO3 = biological target: T29, TYRO3 (Homo sapiens, UniProt Q06418); conditions: read-out: % Retention on Solid Support
T29 construct: purchased DiscoveRx KINOMEscan
Outline: as §1

T29 sequence (Q06418 41-890): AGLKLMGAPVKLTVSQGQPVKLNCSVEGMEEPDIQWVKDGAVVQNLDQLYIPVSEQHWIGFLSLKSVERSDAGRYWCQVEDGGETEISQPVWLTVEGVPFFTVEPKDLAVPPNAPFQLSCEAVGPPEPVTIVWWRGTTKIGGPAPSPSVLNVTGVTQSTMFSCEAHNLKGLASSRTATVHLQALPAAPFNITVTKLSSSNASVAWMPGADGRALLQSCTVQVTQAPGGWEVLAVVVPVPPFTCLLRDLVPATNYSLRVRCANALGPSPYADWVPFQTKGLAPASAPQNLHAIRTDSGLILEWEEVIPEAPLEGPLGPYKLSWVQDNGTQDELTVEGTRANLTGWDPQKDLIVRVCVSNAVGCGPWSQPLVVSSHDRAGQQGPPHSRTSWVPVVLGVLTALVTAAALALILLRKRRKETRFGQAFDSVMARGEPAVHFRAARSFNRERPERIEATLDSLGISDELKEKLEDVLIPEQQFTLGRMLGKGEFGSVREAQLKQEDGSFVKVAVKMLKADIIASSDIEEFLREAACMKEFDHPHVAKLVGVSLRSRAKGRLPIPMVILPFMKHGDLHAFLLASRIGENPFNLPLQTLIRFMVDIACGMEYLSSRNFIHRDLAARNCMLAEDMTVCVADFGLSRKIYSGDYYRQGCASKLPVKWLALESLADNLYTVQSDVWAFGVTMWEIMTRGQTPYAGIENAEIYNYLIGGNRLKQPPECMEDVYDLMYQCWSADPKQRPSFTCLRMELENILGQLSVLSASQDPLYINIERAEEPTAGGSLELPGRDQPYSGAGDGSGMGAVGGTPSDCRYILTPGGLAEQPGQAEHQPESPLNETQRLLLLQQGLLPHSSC
T20 sequence (Q00536 whole entry): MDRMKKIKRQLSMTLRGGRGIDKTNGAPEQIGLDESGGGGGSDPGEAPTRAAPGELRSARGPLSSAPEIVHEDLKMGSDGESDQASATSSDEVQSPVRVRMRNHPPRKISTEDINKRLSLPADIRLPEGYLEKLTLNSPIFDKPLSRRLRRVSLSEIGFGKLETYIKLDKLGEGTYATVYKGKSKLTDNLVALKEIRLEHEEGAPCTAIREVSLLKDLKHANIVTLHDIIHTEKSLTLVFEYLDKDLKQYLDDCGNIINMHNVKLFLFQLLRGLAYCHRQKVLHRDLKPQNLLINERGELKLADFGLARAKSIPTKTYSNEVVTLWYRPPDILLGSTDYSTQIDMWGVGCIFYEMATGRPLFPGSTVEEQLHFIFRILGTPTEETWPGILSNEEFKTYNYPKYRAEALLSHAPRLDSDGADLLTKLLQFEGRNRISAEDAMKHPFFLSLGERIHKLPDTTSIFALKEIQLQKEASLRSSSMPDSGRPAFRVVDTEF
T21 sequence (O75747 whole entry): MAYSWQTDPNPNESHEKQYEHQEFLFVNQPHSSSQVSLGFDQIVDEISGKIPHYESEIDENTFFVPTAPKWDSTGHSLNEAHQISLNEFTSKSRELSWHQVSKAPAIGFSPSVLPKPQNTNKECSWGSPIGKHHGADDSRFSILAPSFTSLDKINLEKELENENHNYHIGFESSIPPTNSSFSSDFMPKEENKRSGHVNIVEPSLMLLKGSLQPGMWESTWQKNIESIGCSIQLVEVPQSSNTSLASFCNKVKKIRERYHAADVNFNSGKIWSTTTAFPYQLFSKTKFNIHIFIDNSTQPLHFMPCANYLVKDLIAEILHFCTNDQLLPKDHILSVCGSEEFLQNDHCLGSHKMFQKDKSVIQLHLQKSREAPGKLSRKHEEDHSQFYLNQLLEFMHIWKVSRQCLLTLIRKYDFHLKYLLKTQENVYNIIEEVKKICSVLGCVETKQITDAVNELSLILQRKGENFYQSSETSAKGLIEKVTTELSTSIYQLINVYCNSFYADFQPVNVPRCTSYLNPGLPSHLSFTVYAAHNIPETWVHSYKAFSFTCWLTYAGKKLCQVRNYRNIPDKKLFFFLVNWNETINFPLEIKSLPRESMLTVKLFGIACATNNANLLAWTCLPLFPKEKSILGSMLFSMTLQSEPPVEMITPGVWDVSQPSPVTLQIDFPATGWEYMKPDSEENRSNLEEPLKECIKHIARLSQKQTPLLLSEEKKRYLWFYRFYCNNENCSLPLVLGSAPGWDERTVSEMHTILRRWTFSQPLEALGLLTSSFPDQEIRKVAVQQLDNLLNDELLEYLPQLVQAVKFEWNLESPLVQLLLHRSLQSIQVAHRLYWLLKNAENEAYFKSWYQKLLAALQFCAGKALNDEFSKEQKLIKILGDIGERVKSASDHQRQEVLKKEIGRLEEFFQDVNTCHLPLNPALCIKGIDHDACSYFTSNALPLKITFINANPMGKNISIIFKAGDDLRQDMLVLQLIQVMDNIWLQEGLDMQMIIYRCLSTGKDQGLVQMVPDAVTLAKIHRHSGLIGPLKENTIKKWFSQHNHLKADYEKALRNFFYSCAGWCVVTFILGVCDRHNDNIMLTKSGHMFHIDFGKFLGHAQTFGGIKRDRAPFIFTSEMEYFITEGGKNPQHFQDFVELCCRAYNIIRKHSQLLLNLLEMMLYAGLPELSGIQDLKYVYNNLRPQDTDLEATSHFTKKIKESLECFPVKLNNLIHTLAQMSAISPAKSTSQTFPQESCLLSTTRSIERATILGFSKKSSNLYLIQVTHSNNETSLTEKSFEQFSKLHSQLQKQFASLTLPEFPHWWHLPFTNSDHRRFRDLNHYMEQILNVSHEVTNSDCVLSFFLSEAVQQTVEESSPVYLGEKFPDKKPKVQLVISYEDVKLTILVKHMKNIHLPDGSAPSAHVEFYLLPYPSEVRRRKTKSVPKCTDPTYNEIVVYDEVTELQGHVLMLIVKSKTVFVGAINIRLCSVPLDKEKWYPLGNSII
T10 sequence (Q9Y616 whole entry): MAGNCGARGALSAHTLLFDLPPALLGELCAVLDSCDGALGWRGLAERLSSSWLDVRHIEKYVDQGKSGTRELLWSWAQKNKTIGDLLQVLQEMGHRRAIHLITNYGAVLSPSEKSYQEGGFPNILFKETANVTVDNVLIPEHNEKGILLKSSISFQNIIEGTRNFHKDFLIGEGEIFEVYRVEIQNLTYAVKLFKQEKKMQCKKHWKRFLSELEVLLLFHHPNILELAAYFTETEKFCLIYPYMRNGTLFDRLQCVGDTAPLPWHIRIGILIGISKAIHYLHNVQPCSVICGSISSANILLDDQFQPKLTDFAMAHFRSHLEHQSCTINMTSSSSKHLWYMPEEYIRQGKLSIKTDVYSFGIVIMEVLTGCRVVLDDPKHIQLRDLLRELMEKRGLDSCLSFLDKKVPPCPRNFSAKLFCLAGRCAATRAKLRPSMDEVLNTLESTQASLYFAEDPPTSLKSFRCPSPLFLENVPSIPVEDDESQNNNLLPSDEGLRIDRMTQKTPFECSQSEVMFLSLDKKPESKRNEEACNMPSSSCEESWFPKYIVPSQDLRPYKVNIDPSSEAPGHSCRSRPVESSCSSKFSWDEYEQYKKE
T8 sequence (P11362 22-822): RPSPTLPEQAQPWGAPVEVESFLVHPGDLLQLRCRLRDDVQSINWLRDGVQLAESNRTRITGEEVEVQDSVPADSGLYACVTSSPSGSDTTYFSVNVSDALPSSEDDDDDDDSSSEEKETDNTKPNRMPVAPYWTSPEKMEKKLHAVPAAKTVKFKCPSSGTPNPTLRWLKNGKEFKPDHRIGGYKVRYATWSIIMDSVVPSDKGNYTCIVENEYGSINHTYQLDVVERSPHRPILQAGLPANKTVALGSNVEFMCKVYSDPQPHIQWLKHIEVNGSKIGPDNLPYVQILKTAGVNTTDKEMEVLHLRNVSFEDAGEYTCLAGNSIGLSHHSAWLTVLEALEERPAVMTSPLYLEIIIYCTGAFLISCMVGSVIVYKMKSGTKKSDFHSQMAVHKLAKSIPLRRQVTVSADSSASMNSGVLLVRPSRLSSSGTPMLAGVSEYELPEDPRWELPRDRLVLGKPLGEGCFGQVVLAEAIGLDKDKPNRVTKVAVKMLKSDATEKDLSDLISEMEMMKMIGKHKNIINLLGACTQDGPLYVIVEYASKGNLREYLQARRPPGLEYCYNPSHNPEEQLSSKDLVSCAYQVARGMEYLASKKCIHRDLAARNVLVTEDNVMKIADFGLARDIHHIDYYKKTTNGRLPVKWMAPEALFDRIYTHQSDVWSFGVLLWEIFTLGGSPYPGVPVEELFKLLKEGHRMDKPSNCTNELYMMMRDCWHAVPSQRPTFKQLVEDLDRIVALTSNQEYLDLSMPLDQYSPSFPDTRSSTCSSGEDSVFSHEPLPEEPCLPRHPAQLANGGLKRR
T11 sequence (P06239 whole entry): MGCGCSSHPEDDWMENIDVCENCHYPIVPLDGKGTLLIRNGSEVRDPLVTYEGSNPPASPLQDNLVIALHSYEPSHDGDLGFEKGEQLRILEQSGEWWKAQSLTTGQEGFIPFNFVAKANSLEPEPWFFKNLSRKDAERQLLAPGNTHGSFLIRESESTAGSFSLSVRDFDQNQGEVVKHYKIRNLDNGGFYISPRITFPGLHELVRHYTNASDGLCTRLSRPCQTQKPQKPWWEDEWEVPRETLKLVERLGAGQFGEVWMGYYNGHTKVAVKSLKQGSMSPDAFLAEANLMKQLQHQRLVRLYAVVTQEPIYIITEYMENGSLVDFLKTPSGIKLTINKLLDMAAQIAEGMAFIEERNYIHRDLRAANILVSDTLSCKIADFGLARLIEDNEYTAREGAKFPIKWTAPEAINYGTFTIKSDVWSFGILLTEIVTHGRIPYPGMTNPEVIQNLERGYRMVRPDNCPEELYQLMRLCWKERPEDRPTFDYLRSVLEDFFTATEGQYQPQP

N[C@H]1CC[C@H](Nc2cc(-c3cccc(NCc4cccc(F)c4)n3)c(Cl)cn2)CC1 [i-CDK9, N2′-(trans-4-aminocyclohexyl)-5′-chloro-N6-(3-fluorobenzyl)-2,4′-bipyridine-2′,6-diamine]
remaining binding at 1 µM [1]: 92%
remaining binding at 1 µM (ABL2; 1 µM i-CDK9): 100%
remaining binding at 10 µM (ABL2; 10 µM i-CDK9): 100%
remaining binding at 1 µM (BRAF(V600E); 1 µM i-CDK9): 100%
remaining binding at 10 µM (BRAF(V600E); 10 µM i-CDK9): 88%
% Retention on Solid Support (CSNK1G3; 1 µM i-CDK9): 91%
% Retention on Solid Support (CSNK1G3; 10 µM i-CDK9): 63%
remaining binding at 1 µM (DMPK; 1 µM i-CDK9): 100%
remaining binding at 10 µM (DMPK; 10 µM i-CDK9): 20%
% Retention on Solid Support (EPHA5; 1 µM i-CDK9): 96%
% Retention on Solid Support (EPHA5; 10 µM i-CDK9): 100%
remaining binding at 1 µM (ERBB3; 1 µM i-CDK9): 100%
remaining binding at 10 µM (ERBB3; 10 µM i-CDK9): 100%
remaining binding at 1 µM (FGFR1; 1 µM i-CDK9): 100%
remaining binding at 10 µM (FGFR1; 10 µM i-CDK9): 100%
remaining binding at 1 µM (FGFR3; 1 µM i-CDK9): 100%
remaining binding at 10 µM (FGFR3; 10 µM i-CDK9): 95%
remaining binding at 1 µM (IRAK3; 1 µM i-CDK9): 100%
remaining binding at 10 µM (IRAK3; 10 µM i-CDK9): 88%
remaining binding at 1 µM (LCK; 1 µM i-CDK9): 100%
remaining binding at 10 µM (LCK; 10 µM i-CDK9): 100%
remaining binding at 1 µM (LRRK2(G2019S)): 100%
remaining binding at 1 µM (MAP3K15; 1 µM i-CDK9): 100%
remaining binding at 10 µM (MAP3K15; 10 µM i-CDK9): 100%
remaining binding at 1 µM (MAP3K2; 1 µM i-CDK9): 23%
remaining binding at 10 µM (MAP3K2; 10 µM i-CDK9): 100%
remaining binding at 1 µM (MEK3; 1 µM i-CDK9): 99%
remaining binding at 10 µM (MEK3; 10 µM i-CDK9): 85%
% Retention on Solid Support (MET(Y1235D); 1 µM i-CDK9): 100%
% Retention on Solid Support (MET(Y1235D); 10 µM i-CDK9): 11%
remaining binding at 1 µM (MINK; 1 µM i-CDK9): 100%
remaining binding at 10 µM (MINK; 10 µM i-CDK9): 65%
% Retention on Solid Support (MKK7): 100%
remaining binding at 1 µM (NEK11): 100%
remaining binding at 1 µM (PCTK1; 1 µM i-CDK9): 19%
remaining binding at 10 µM (PCTK1; 10 µM i-CDK9): 0.85%
remaining binding at 1 µM (PIK3C2G; 1 µM i-CDK9): 100%
remaining binding at 10 µM (PIK3C2G; 10 µM i-CDK9): 99%
remaining binding at 1 µM (PIK3CA(E542K); 1 µM i-CDK9): 100%
remaining binding at 10 µM (PIK3CA(E542K); 10 µM i-CDK9): 100%
remaining binding at 1 µM (PRKD2; 1 µM i-CDK9): 88%
remaining binding at 10 µM (PRKD2; 10 µM i-CDK9): 47%
remaining binding at 1 µM (PRKD3; 1 µM i-CDK9): 73%
remaining binding at 10 µM (PRKD3; 10 µM i-CDK9): 14%
remaining binding at 1 µM ([2]; 1 µM i-CDK9): 48%
remaining binding at 10 µM ([2]; 10 µM i-CDK9): 84%
% Retention on Solid Support ([3]; 1 µM i-CDK9): 70%
% Retention on Solid Support ([3]; 10 µM i-CDK9): 100%
remaining binding at 1 µM (SBK1; 1 µM i-CDK9): 100%
remaining binding at 10 µM (SBK1; 10 µM i-CDK9): 100%
remaining binding at 1 µM (SIK2; 1 µM i-CDK9): 90%
remaining binding at 10 µM (SIK2; 10 µM i-CDK9): 64%
remaining binding at 1 µM (TYRO3; 1 µM i-CDK9): 71%
remaining binding at 10 µM (TYRO3; 10 µM i-CDK9): 100%
